According to US20240101528A1, “SUBSTITUTED PYRAZOLO PIPERIDINE CARBOXYLIC ACIDS” (BAYER AKTIENGESELLSCHAFT, priority 2020, published 2024):
Counter-ions that a name gives are not always drawn.

Biological target: T1, recombinant guanylate cyclase reporter cell line (Rattus norvegicus, UniProt P20595)
T1 construct: expressed in transfected cells
T1 sequence (P20595 1-619): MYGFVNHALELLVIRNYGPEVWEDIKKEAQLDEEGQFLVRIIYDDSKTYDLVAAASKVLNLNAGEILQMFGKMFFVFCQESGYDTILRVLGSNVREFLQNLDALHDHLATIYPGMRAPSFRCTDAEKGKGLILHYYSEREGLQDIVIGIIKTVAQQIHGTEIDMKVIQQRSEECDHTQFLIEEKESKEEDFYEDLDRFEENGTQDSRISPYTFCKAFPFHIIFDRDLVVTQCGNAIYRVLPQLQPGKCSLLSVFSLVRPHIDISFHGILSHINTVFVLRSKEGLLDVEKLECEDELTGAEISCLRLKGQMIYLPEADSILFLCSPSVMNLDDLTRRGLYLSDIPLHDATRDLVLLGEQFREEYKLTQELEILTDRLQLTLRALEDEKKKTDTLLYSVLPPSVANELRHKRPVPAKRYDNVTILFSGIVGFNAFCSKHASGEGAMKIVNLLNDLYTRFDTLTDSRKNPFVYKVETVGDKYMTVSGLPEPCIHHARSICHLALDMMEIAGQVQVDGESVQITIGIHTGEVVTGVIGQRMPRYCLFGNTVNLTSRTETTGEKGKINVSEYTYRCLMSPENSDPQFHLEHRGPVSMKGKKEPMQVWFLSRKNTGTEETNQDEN
T1 sequence (P19686 1-690 partner): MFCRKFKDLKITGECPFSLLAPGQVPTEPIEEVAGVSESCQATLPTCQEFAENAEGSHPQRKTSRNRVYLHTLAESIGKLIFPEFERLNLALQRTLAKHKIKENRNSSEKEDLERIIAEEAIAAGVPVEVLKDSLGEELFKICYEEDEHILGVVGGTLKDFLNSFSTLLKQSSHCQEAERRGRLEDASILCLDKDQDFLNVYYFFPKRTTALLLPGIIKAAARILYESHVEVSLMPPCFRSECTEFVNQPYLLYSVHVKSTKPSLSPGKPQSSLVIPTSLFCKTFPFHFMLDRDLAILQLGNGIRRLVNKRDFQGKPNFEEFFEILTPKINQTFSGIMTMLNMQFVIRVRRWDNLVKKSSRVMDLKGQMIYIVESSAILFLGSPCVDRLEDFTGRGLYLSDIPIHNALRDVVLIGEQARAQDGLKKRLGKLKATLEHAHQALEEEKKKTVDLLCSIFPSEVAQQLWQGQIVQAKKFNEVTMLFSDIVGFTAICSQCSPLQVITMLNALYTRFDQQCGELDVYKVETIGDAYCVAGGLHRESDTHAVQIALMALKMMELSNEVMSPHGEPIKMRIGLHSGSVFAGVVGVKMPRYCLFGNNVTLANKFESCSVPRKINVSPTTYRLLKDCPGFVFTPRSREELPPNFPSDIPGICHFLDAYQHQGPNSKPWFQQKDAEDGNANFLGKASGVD
Experiment: Effect on a recombinant guanylate cyclase reporter cell line
Assay type: cell-based
Conditions: for EC50: half maximal effective concentration; for MEC: minimum effective concentration
Experimental: B-1. Effect on a Recombinant Guanylate Cyclase Reporter Cell Line
The cellular activity of the compounds according to the invention was determined using a recombinant guanylate cyclase reporter cell line, as described in F. Wunder et al., Anal. Biochem. 339, 104-112 (2005).

EC50 | MEC | SMILES
7.5 nM | 3.0 nM | CC(C)CN1CCN(c2ccc(-c3ccc(Cl)cc3N3CCCC(n4ncc(C(=O)O)c4C(F)F)C3)cn2)CC1 (single isomer, unassigned; enantiomer 2) [Example 62, 1-(1-{5-Chloro-2-[6-(4-isobutylpiperazin-1-yl)pyridin-3-yl]phenyl}piperidin-3-yl)-5-(difluoromethyl)-1H-pyrazole-4-carboxylic acid hydrochloride (Enantiomer 2)]
96.5 nM | 10.0 nM | CN1CCN(c2ccc(-c3ccc(Cl)cc3N3CCCC(n4ncc(C(=O)O)c4C(F)F)C3)cc2)CC1 (single isomer, unassigned; enantiomer 1) [Example 1, 1-{1-[4-Chloro-4′-(4-methylpiperazin-1-yl)[biphenyl]-2-yl]piperidin-3-yl}-5-(difluoromethyl)-1H-pyrazole-4-carboxylic acid hydrochloride (Enantiomer 1)]
24.6 nM | 3.0 nM | CCN1CCN(c2ccc(-c3ccc(Cl)cc3N3CCCC(n4ncc(C(=O)O)c4C(F)F)C3)cc2)CC1 (single isomer, unassigned; enantiomer 1) [Example 3, 1-{1-[4-Chloro-4′-(4-ethylpiperazin-1-yl)[biphenyl]-2-yl]piperidin-3-yl}-5-(difluoromethyl)-1H-pyrazole-4-carboxylic acid hydrochloride (Enantiomer 1)]
56.5 nM | 10.0 nM | CC(C)CN1CCN(c2ccc(-c3ccc(Cl)cc3N3CC(n4ncc(C(=O)O)c4C(F)F)CC(F)(F)C3)cc2)CC1 (single isomer, unassigned; enantiomer 2) [Example 55, 1-{1-[4-Chloro-4′-(4-isobutylpiperazin-1-yl)[biphenyl]-2-yl]-5,5-difluoropiperidin-3-yl}-5-(difluoromethyl)-1H-pyrazole-4-carboxylic acid hydrochloride (Enantiomer 2)]
1.9 nM | 1.0 nM | O=C(O)c1cnn(C2CCCN(c3cc(Cl)ccc3-c3ccc(N4CCN(CC(F)(F)F)CC4)nc3)C2)c1C(F)F (single isomer, unassigned; enantiomer 1) [Example 64, 1-[1-(5-Chloro-2-{6-[4-(2,2,2-trifluoroethyl)piperazin-1-yl]pyridin-3-yl}phenyl)piperidin-3-yl]-5-(difluoromethyl)-1H-pyrazole-4-carboxylic (Enantiomer 1)]
25.2 nM | 7.0 nM | CN1CCN(c2ccc(-c3ccc(Cl)cc3N3CCCC(n4ncc(C(=O)O)c4C(F)F)C3)cc2)CC1 (single isomer, unassigned; enantiomer 2) [Example 2, 1-{1-[4-Chloro-4′-(4-methylpiperazin-1-yl)[biphenyl]-2-yl]piperidin-3-yl}-5-(difluoromethyl)-1H-pyrazole-4-carboxylic acid hydrochloride (Enantiomer 2)]
11.8 nM | 1.0 nM | O=C(O)c1cnn(C2CCCN(c3cc(Cl)ccc3-c3ccc(N4CCN(CC5(C(F)(F)F)CC5)CC4)cc3)C2)c1C(F)F (single isomer, unassigned; enantiomer 2) [Example 40, 1-{1-[4-Chloro-4′-(4-{[1-(trifluoromethyl)cyclopropyl]methyl}piperazin-1-yl) [biphenyl]-2-yl]piperidin-3-yl}-5-(difluoromethyl)-1H-pyrazole-4-carboxylic acid hydrochloride (Enantiomer 2)]
< 1 nM | <0.3 nM | O=C(O)c1cnn(C2CCCN(c3cc(Cl)ccc3-c3ccc(N4CCN(CCC(F)(F)F)CC4)nc3)C2)c1C(F)F (single isomer, unassigned; enantiomer 2) [Example 67, 1-[1-(5-Chloro-2-{6-[4-(3,3,3-trifluoropropyl)piperazin-1-yl]pyridin-3-yl}phenyl)piperidin-3-yl]-5-(difluoromethyl)-1H-pyrazole-4-carboxylic acid hydrochloride (Enantiomer 2)]
42.5 nM | 3.0 nM | O=C(O)c1cnn(C2CCCN(c3cc(Cl)ccc3-c3ccc(N4CCCC4)cc3)C2)c1C(F)F (single isomer, unassigned; enantiomer 2) [Example 45, 1-{1-[4-Chloro-4′-(pyrrolidin-1-yl)[biphenyl]-2-yl]piperidin-3-yl}-5-(difluoromethyl)-1H-pyrazole-4-carboxylic acid (Enantiomer 2)]
6.5 nM | 1.0 nM | O=C(O)c1cnn(C2CCCN(c3cc(Cl)ccc3-c3ccc(N4CCN(CCOC(F)(F)F)CC4)cc3)C2)c1C(F)F (single isomer, unassigned; enantiomer 2) [Example 26, 1-[1-(4-Chloro-4′-{4-[2-(trifluoromethoxy)ethyl]piperazin-1-yl}[biphenyl]-2-yl)piperidin-3-yl]-5-(difluoromethyl)-1H-pyrazole-4-carboxylic acid hydrochloride (Enantiomer 2)]
70 nM | 30.0 nM | CCN1CCN(c2ccc(-c3ccc(Cl)cc3N3CCCC(n4ncc(C(=O)O)c4C(F)F)C3)cn2)CC1 (single isomer, unassigned; enantiomer 2) [Example 60, 1-(1-{5-Chloro-2-[6-(4-ethylpiperazin-1-yl)pyridin-3-yl]phenyl}piperidin-3-yl)-5-(difluoromethyl)-1H-pyrazole-4-carboxylic acid hydrochloride (Enantiomer 2)]
1.7 nM | 0.3 nM | N#CCCN1CCN(c2ccc(-c3ccc(Cl)cc3N3CCCC(n4ncc(C(=O)O)c4C(F)F)C3)cc2)CC1 (single isomer, unassigned; enantiomer 2) [Example 46, 1-(1-{4-Chloro-4′-[4-(2-cyanoethyl)piperazin-1-yl][biphenyl]-2-yl}piperidin-3-yl)-5-(difluoromethyl)-1H-pyrazole-4-carboxylic acid (Enantiomer 2)]
3.4 nM | 0.3 nM | O=C(O)c1cnn(C2CCCN(c3cc(Cl)ccc3-c3ccc(N4CCN(CC5CC5F)CC4)cc3)C2)c1C(F)F (single isomer, unassigned; diastereomer 4) [Example 34, 1-[1-[5-Chloro-2-[4-[4-[(trans-2-fluorocyclopropyl)methyl]piperazin-1-yl]phenyl]phenyl]-3-piperidyl]-5-(difluoromethyl)pyrazole-4-carboxylic acid hydrochloride (Diastereomer 4)]
0.8 nM | 0.3 nM | O=C(O)c1cnn(C2CCCN(c3cc(Cl)ccc3-c3ccc(N4CCN(CC5CC5(F)F)CC4)cc3)C2)c1C(F)F (single isomer, unassigned; diastereomer 1) [Example 28, 1-{1-[4-Chloro-4′-(4-{[2,2-difluorocyclopropyl]methyl}piperazin-1-yl)[biphenyl]-2-yl]piperidin-3-yl}-5-(difluoromethyl)-1H-pyrazole-4-carboxylic acid hydrochloride (Diastereomer 1)]
66 nM | 10.0 nM | CCN1CCN(c2ccc(-c3ccc(C(F)(F)F)cc3N3CCCC(n4ncc(C(=O)O)c4C(F)F)C3)cc2)CC1 (single isomer, unassigned; enantiomer 1) [Example 73, 5-(Difluoromethyl)-1-{1-[4′-(4-ethylpiperazin-1-yl)-4-(trifluoromethyl)[biphenyl]-2-yl]piperidin-3-yl}-1H-pyrazole-4-carboxylic acid hydrochloride (Enantiomer 1)]
9.2 nM | 0.8 nM | O=C(O)c1cnn(C2CCCN(c3cc(Cl)ccc3-c3ccc(N4CCN(CC5CC5)CC4)cc3)C2)c1C(F)F (single isomer, unassigned; enantiomer 1) [Example 10, 1-[1-{4-Chloro-4′-[4-(cyclopropylmethyl)piperazin-1-yl][1,1′-biphenyl]-2-yl}piperidin-3-yl]-5-(difluoromethyl)-1H-pyrazole-4-carboxylic acid hydrochloride (Enantiomer 1)]
